Test results taken from patent US20240376084A1, “INHIBITORS OF ALPHA-HEMOLYSIN OF STAPHYLOCOCCUS AUREUS” (Helmholtz-Zentrum Fur Infektionsforschung GmbH, priority 2021, published 2024).
pEC50, pIC50: −log10 of the molar value.

Legend:
[1] = target: hemolysin alpha from Staphylococcus aureus (Staphylococcus aureus, UniProt P09616); test: cell-based
[2] = target: S. aureus Alpha hemolysin (Staphylococcus aureus, UniProt P09616); test: cell-based; settings: A549-LDH Assay activity
S. aureus Alpha hemolysin, sequence (P09616 27-319 limits assumed): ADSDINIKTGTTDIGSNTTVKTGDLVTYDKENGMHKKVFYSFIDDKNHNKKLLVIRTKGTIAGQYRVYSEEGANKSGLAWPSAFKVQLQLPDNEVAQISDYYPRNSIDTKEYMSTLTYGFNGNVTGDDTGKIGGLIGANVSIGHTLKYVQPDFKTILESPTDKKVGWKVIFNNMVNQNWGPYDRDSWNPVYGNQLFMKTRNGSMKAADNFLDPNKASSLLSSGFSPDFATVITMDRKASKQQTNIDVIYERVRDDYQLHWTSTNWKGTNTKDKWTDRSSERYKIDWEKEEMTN

hemolysin alpha from Staphylococcus aureus, sequence (P09616 27-319 limits assumed): as above

| Structure (SMILES) | pIC50 [1] | pEC50 [2] | pEC50 [1] |
| --- | --- | --- | --- |
| CC(C)c1ccc(NS(=O)(=O)c2cc3[nH]c(=O)c(=O)[nH]c3cc2Cl)cc1 [Compound 142, 7-chloro-N-(4-isopropylphenyl)-2,3-dioxo-1,2,3,4-tetrahydroquinoxaline-6-sulfonamide] | 6.00 to 7.00 | 6.00 to 7.00 |  |
| O=c1[nH]c2cc(Cl)c(S(=O)(=O)Nc3ccc(C(F)(F)F)c(Cl)c3)cc2[nH]c1=O [Compound 143, 7-chloro-N-(3-chloro-4-(trifluoromethyl)phenyl)-2,3-dioxo-1,2,3,4-tetrahydroquinoxaline-6-sulfonamide] | 6.00 to 7.00 | 5.22 to 6.00 |  |
| O=c1[nH]c2cc(Cl)c(S(=O)(=O)Nc3ccc(Br)c(Cl)c3)cc2[nH]c1=O [Compound 144, N-(4-bromo-3-chlorophenyl)-7-chloro-2,3-dioxo-1,2,3,4-tetrahydroquinoxaline-6-sulfonamide] | 6.00 to 7.00 | 5.22 to 6.00 |  |
| Cc1ccc(-c2ccc(NS(=O)(=O)c3cc4[nH]c(=O)c(=O)[nH]c4cc3Cl)cc2Cl)o1 [Compound 146, 7-chloro-N-(3-chloro-4-(5-methylfuran-2-yl)phenyl)-2,3-dioxo-1,2,3,4-tetrahydroquinoxaline-6-sulfonamide] | 6.00 to 7.00 | 5.22 to 6.00 |  |
| O=c1[nH]c2cc(F)c(S(=O)(=O)Nc3ccc(OC(F)(F)F)cc3)cc2[nH]c1=O [Compound 147, 7-fluoro-2,3-dioxo-N-(4-(trifluoromethoxy)phenyl)-1,2,3,4-tetrahydroquinoxaline-6-sulfonamide] | 6.00 to 7.00 | 6.00 to 7.00 |  |
| CCc1cc2[nH]c(=O)c(=O)[nH]c2cc1S(=O)(=O)Nc1ccc(Br)c(Cl)c1 [Compound 149, N-(4-bromo-3-chlorophenyl)-7-ethyl-2,3-dioxo-1,2,3,4-tetrahydroquinoxaline-6-sulfonamide] | 6.00 to 7.00 | 6.00 to 7.00 |  |
| O=c1[nH]c2cc(F)c(S(=O)(=O)Nc3ccc(-c4ccncc4)c(Cl)c3)cc2[nH]c1=O [Compound 150, N-(3-chloro-4-(pyridin-4-yl)phenyl)-7-fluoro-2,3-dioxo-1,2,3,4-tetrahydroquinoxaline-6-sulfonamide] | 6.00 to 7.00 | 6.00 to 7.00 |  |
| CC(C)c1cc2[nH]c(=O)c(=O)[nH]c2cc1S(=O)(=O)Nc1ccc(C(F)(F)F)cc1 [Compound 152, 7-isopropyl-2,3-dioxo-N-(4-(trifluoromethyl)phenyl)-1,2,3,4-tetrahydroquinoxaline-6-sulfonamide] | 6.00 to 7.00 | 7.00 to 7.52 |  |
| Cc1cc(NS(=O)(=O)c2cc3[nH]c(=O)c(=O)[nH]c3cc2F)ccc1-c1ccoc1 [Compound 168, 7-fluoro-N-(4-(furan-3-yl)-3-methylphenyl)-2,3-dioxo-1,2,3,4-tetrahydroquinoxaline-6-sulfonamide] | 6.00 to 7.00 | 5.22 to 6.00 |  |
| O=c1[nH]c2cc(Cl)c(S(=O)(=O)Nc3ccc(C4CCCCC4)cc3)cc2[nH]c1=O [Compound 170, 7-chloro-N-(4-cyclohexylphenyl)-2,3-dioxo-1,2,3,4-tetrahydroquinoxaline-6-sulfonamide] | 6.00 to 7.00 | 6.00 to 7.00 |  |
| Cc1cc(NS(=O)(=O)c2cc3[nH]c(=O)c(=O)[nH]c3cc2C)ccc1Br [Compound 171, N-(4-bromo-3-methylphenyl)-7-methyl-2,3-dioxo-1,2,3,4-tetrahydroquinoxaline-6-sulfonamide] | 6.00 to 7.00 | 7.00 to 7.52 |  |
| O=c1[nH]c2cc(Cl)c(S(=O)(=O)Nc3ccc4ccccc4c3)cc2[nH]c1=O [Compound 172, 7-chloro-N-(naphthalen-2-yl)-2,3-dioxo-1,2,3,4-tetrahydroquinoxaline-6-sulfonamide] | 6.00 to 7.00 | 6.00 to 7.00 |  |
| CC(C)(C)c1ccc(NS(=O)(=O)c2cc3[nH]c(=O)c(=O)[nH]c3cc2Cl)cc1 [Compound 173, N-(4-(tert-butyl)phenyl)-7-chloro-2,3-dioxo-1,2,3,4-tetrahydroquinoxaline-6-sulfonamide] | 6.00 to 7.00 | 7.00 to 7.52 |  |
| O=c1[nH]c2cc(Cl)c(S(=O)(=O)Nc3ccc4c(c3)CCCC4)cc2[nH]c1=O [Compound 174, 7-chloro-2,3-dioxo-N-(5,6,7,8-tetrahydronaphthalen-2-yl)-1,2,3,4-tetrahydroquinoxaline-6-sulfonamide] | 6.00 to 7.00 | 7.00 to 7.52 |  |
| Cc1cccc(-c2c(C)cc(NS(=O)(=O)c3cc4[nH]c(=O)c(=O)[nH]c4cc3C)cc2C)c1 [Compound 175, 7-methyl-2,3-dioxo-N-(2,3′,6-trimethyl-[1,1′-biphenyl]-4-yl)-1,2,3,4-tetrahydroquinoxaline-6-sulfonamide] | 6.00 to 7.00 | 6.00 to 7.00 |  |
| Cc1cc2[nH]c(=O)c(=O)[nH]c2cc1S(=O)(=O)Nc1ccc(Cl)cc1 [Compound 177, N-(4-chlorophenyl)-7-methyl-2,3-dioxo-1,2,3,4-tetrahydroquinoxaline-6-sulfonamide] | 6.00 to 7.00 | 6.00 to 7.00 |  |

| Structure (SMILES) | pIC50 [1] | pEC50 [2] | pEC50 [1] |
| --- | --- | --- | --- |
| Cc1cc2[nH]c(=O)c(=O)[nH]c2cc1S(=O)(=O)Nc1ccc(-c2ccccc2C(=O)O)cc1 [Compound 182, 4′-((7-methyl-2,3-dioxo-1,2,3,4-tetrahydroquinoxaline)-6-sulfonamido)-[1,1′-biphenyl]-2-carboxylic acid] | 5.46 to 6.00 | 5.22 to 6.00 |  |
| O=c1[nH]c2cc(OC(F)(F)F)c(S(=O)(=O)Nc3ccc(-c4ccc(F)cc4)c(Cl)c3)cc2[nH]c1=O [Compound 197, N-(2-chloro-4′-fluoro-[1,1′-biphenyl]-4-yl)-2,3-dioxo-7-(trifluoromethoxy)-1,2,3,4-tetrahydroquinoxaline-6-sulfonamide] |  | 5.22 to 6.00 | 5.46 to 6.00 |
| Cc1cc2[nH]c(=O)c(=O)[nH]c2cc1S(=O)(=O)Nc1ccc(N2CCOCC2(C)C)c(Cl)c1 [Compound 202, N-(3-chloro-4-(3,3-dimethylmorpholino)phenyl)-7-methyl-2,3-dioxo-1,2,3,4-tetrahydroquinoxaline-6-sulfonamide] |  | 6.00 to 7.00 | 6.00 to 7.00 |
| Cc1cc2[nH]c(=O)c(=O)[nH]c2cc1S(=O)(=O)Nc1ccc(-c2cccc(N3CCC3)c2)c(Cl)c1 [Compound 206, N-(3′-(azetidin-1-yl)-2-chloro-[1,1′-biphenyl]-4-yl)-7-methyl-2,3-dioxo-1,2,3,4-tetrahydroquinoxaline-6-sulfonamide] |  | 7.00 to 7.52 | > 7.52 |
| Cc1cc2[nH]c(=O)c(=O)[nH]c2cc1S(=O)(=O)Nc1cc(Cl)c(-c2cccc(Cl)c2)cn1 [Compound 210, N-(4-chloro-5-(3-chlorophenyl)pyridin-2-yl)-7-methyl-2,3-dioxo-1,2,3,4-tetrahydroquinoxaline-6-sulfonamide] |  | 6.00 to 7.00 | 7.00 to 7.52 |
| Cc1cc2[nH]c(=O)c(=O)[nH]c2cc1S(=O)(=O)Nc1cc(Cl)c(-c2ccc(F)c(Cl)c2)cn1 [Compound 211, N-(4-chloro-5-(3-chloro-4-fluorophenyl)pyridin-2-yl)-7-methyl-2,3-dioxo-1,2,3,4-tetrahydroquinoxaline-6-sulfonamide] |  | 6.00 to 7.00 | 6.00 to 7.00 |
| N#Cc1cc2[nH]c(=O)c(=O)[nH]c2cc1S(=O)(=O)Nc1ccc(OC(F)(F)F)cc1 [Compound 216, 7-cyano-2,3-dioxo-N-(4-(trifluoromethoxy)phenyl)-1,2,3,4-tetrahydroquinoxaline-6-sulfonamide] |  | 6.00 to 7.00 | 6.00 to 7.00 |
| [2H]C([2H])([2H])c1cc2[nH]c(=O)c(=O)[nH]c2cc1S(=O)(=O)Nc1ccc(OC(F)(F)F)cc1 [Compound 217, 7-(methyl-d3)-2,3-dioxo-N-(4-(trifluoromethoxy)phenyl)-1,2,3,4-tetrahydroquinoxaline-6-sulfonamide] |  | > 7.52 | > 7.52 |
| O=c1[nH]c2cc(C(F)F)c(S(=O)(=O)Nc3ccc(OC(F)(F)F)cc3)cc2[nH]c1=O [Compound 218, 7-(difluoromethyl)-2,3-dioxo-N-(4-(trifluoromethoxy)phenyl)-1,2,3,4-tetrahydroquinoxaline-6-sulfonamide] |  | 6.00 to 7.00 | 6.00 to 7.00 |
| Cc1cc2[nH]c(=O)c(=O)[nH]c2cc1S(=O)(=O)NC12CC(c3ccccc3)(C1)C2 [Compound 230, 7-methyl-2,3-dioxo-N-(3-phenylbicyclo[1.1.1]pentan-1-yl)-1,2,3,4-tetrahydroquinoxaline-6-sulfonamide] |  | 6.00 to 7.00 | 6.00 to 7.00 |
| Cc1cc2[nH]c(=O)c(=O)[nH]c2cc1S(=O)(=O)Nc1ccc(N2CCOC[C@H]2C)c(Cl)c1 [Compound 243, (R)-N-(3-chloro-4-(3-methylmorpholino)phenyl)-7-methyl-2,3-dioxo-1,2,3,4-tetrahydroquinoxaline-6-sulfonamide] |  | 6.00 to 7.00 | 5.46 to 6.00 |
| Cc1cc2[nH]c(=O)c(=O)[nH]c2cc1S(=O)(=O)Nc1ccc(-c2ccc(F)cc2)c(Br)c1 [Compound 244, N-[3-bromo-4-(4-fluorophenyl)phenyl]-7-methyl-2,3-dioxo-1,4-dihydroquinoxaline-6-sulfonamide] |  | 7.00 to 7.52 | > 7.52 |
| Cc1cc2[nH]c(=O)c(=O)[nH]c2cc1S(=O)(=O)Nc1ccc(-c2cccc(C(N)=O)c2)c(Cl)c1 [Compound 245, 3-[2-chloro-4-[(7-methyl-2,3-dioxo-1,4-dihydroquinoxalin-6-yl)sulfonylamino]phenyl] benzamide] |  | 7.00 to 7.52 | > 7.52 |
| COc1ccc(-c2ccc(NS(=O)(=O)c3cc4[nH]c(=O)c(=O)[nH]c4cc3C)cc2Cl)cc1 [Compound 246, N-[3-chloro-4-(4-methoxyphenyl)phenyl]-7-methyl-2,3-dioxo-1,4-dihydroquinoxaline-6-sulfonamide] |  | 7.00 to 7.52 | > 7.52 |
| Cc1cc2[nH]c(=O)c(=O)[nH]c2cc1S(=O)(=O)Nc1ccc(-c2ccc3c(c2)OCO3)c(Cl)c1 [Compound 247, N-[4-(1,3-benzodioxol-5-yl)-3-chloro-phenyl]-7-methyl-2,3-dioxo-1,4-dihydroquinoxaline-6-sulfonamide] |  | 7.00 to 7.52 | > 7.52 |
| Cc1cc(C)cc(-c2ccc(NS(=O)(=O)c3cc4[nH]c(=O)c(=O)[nH]c4cc3C)cc2Cl)c1 [Compound 248, N-[3-chloro-4-(3,5-dimethylphenyl)phenyl]-7-methyl-2,3-dioxo-1,4-dihydroquinoxaline-6-sulfonamide] |  | 6.00 to 7.00 | 6.00 to 7.00 |
